Molecular target: T1, Human IDO (Homo sapiens, UniProt P14902)
T1 construct: High control is Hela cells with IFNγ treatment; endogenous in cells; host or cells: HeLa cells treated with 25 ng/ml IFNγ
Experiment: HeLa cell IDO assay (IFNγ-treated cells, N-formylkynurenine by RapidFire/MS/MS)
Assay type: cell-based
Settings: 25 ng/ml IFNγ, 200 μM Trp, 48 hours, class symbol

T1 sequence (P14902 whole entry): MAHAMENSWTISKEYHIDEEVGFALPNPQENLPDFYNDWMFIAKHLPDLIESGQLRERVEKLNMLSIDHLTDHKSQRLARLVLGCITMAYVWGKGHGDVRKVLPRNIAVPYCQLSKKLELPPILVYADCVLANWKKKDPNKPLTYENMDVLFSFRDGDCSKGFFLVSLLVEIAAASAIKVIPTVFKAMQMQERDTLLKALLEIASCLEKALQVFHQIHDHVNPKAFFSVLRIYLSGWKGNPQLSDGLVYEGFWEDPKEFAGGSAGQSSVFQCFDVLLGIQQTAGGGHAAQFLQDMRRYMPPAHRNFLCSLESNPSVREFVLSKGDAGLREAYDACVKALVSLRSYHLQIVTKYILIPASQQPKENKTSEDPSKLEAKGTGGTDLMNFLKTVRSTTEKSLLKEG

Row | Structure (SMILES) | IC50
1 | O=C(NN1CCCCC1)[C@H]1C[C@]12CC[C@H](c1ccnc3ccc(F)cc31)CC2 [Compound 1-18] | > 1 µM
2 | COc1ccc2nccc([C@H]3CC[C@@]4(CC3)C[C@@H]4C(=O)Nc3ccc(Cl)cc3)c2c1 [Compound 8-4D] | 0.1 to 1 µM
3 | O=C(NC1CC12CCC(c1ccnc3ccc(F)cc13)CC2)c1ccc(Cl)cc1 (single isomer, unassigned) [Compound 9-4, 4-chloro-N-(6-(6-fluoroquinolin-4-yl)spiro[2.5]octan-1-yl)benzamide] | < 0.1 µM
4 | N#Cc1ccc(NC(=O)[C@H]2C[C@]23CC[C@H](c2ccnc4ccc(F)cc42)CC3)nc1 [Compound 3-3] | 0.1 to 1 µM
5 | O=C(Nc1ccc(Cl)cc1)C1(C2CCC(c3ccnc4ccncc34)CC2)CC1 (mixture of isomers) [Compound 29-6, 1-(4-(1,6-naphthyridin-4-yl)cyclohexyl)-N-(4-chlorophenyl) cyclopropane-1-carboxamide] | < 0.1 µM
6 | O=C(NC1CC2(CCN(c3ccnc4ccncc34)CC2)C1)c1ccc(Cl)cc1 [Compound 22-5, N-(7-(1,6-naphthyridin-4-yl)-7-azaspiro[3.5]nonan-2-yl)-4-chlorobenzamide] | > 1 µM
7 | O=C(Nc1ccc(Cl)cc1)C1(C2CCN(c3ccnc4ccc(F)cc34)CC2)CC1 [Compound 26-8, N-(4-chlorophenyl)-1-[1-(6-fluoroquinolin-4-yl)piperidin-4-yl]cyclopropane-1-carboxamide] | < 0.1 µM
8 | O=C(NC1CCC12CCC(c1ccnc3ccc(F)cc13)CC2)c1ccc(Cl)cc1 (stereo not shown) [Compound 14-7, 4-chloro-N-(7-(6-fluoroquinolin-4-yl)spiro[3.5]nonan-1-yl)benzamide] | > 1 µM
9 | O=C(Nc1ccc(Cl)cc1)C1CC12CCC(c1ccnc3ccncc13)CC2 (racemic) [Compound 6-9, N-(4-chlorophenyl)-6-(1,6-naphthyridin-4-yl)spiro[2.5]octane-1-carboxamide] | < 0.1 µM
10 | N#Cc1ccc2nccc([C@H]3CC[C@@]4(CC3)C[C@@H]4C(=O)Nc3ccc(Cl)cc3)c2c1 [Compound 8-4B] | < 0.1 µM
11 | N#Cc1ccc(NC(=O)C2CC23CCC(c2ccnc4ccc(F)cc24)CC3)cc1 (stereo not shown) [Compound 2-1, N-(4-cyanophenyl)-6-(6-fluoroquinolin-4-yl)spiro[2.5]octane-1-carboxamide] | < 0.1 µM
12 | O=C(Nc1ccc(Cl)cc1)C1CC2(CCC(c3ccnc4ccncc34)CC2)C1 (single isomer, unassigned) [Compound 20-9, N-(4-chlorophenyl)-7-(1,6-naphthyridin-4-yl)spiro[3.5]nonane-2-carboxamide] | > 1 µM
13 | COc1cc2nccc([C@H]3CC[C@@]4(CC3)C[C@@H]4C(=O)Nc3ccc(Cl)cc3)c2cc1OC [Compound 8-4C] | < 0.1 µM
14 | O=C(N[C@H]1CC2(CC[C@H](c3ccnc4ccncc43)CC2)C1)c1ccc(Cl)cc1 (single isomer, unassigned) [Compound 21-4] | < 0.1 µM
15 | O=C(Nc1ccccc1F)[C@H]1C[C@]12CC[C@H](c1ccnc3ccc(F)cc31)CC2 [Compound 1-16] | 0.1 to 1 µM
16 | O=C(Nc1ccc(I)cc1F)[C@H]1C[C@]12CC[C@H](c1ccnc3ccc(F)cc31)CC2 (single isomer, unassigned) [Compound 4-9] | < 0.1 µM
